Measured values published in the supplement of paper PMC10307832.

Key:
Assay in all cases: relative viability (nuclei count vs DMSO), 5 days (fraction); higher = more cells survive
XMD13-2 + Lapatinib = compound: C1CC1C(=O)NC2=NNC3=C2C=CC(=C3)C4=CC(=CC=C4)C(=O)NC5CC5 [XMD13-2] + CS(=O)(=O)CCNCc1ccc(-c2ccc3ncnc(Nc4ccc(OCc5cccc(F)c5)c(Cl)c4)c3c2)o1 [Lapatinib] (partner 2 µM)
Procedure, shortened: (§1)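 Lung cancer cell lines were pin-tool dosed in 1536-well plates on the day after seeding, with either a lone drug or a fixed anchor-drug dose plus five library-drug doses (not always all listed) in √10 steps. Nuclei were counted on 4× images after 5 days. Relative viability is the ratio of treated-well to vehicle-well nuclei counts, with each value a median of duplicate plates.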

Dasatinib + Phenformin = compound: Cc1nc(Nc2ncc(C(=O)Nc3c(C)cccc3Cl)s2)cc(N2CCN(CCO)CC2)n1 [Dasatinib] + N=C(N)NC(=N)NCCc1ccccc1 [Phenformin] (partner 250 µM)
Procedure, shortened: as §1

XMD13-2 + Olaparib = compound: C1CC1C(=O)NC2=NNC3=C2C=CC(=C3)C4=CC(=CC=C4)C(=O)NC5CC5 [XMD13-2] + O=C(c1cc(Cc2n[nH]c(=O)c3ccccc23)ccc1F)N1CCN(C(=O)C2CC2)CC1 [Olaparib] (partner 8 µM)
Procedure, shortened: as §1

ALW-II-49-7 + Lapatinib = compound: Cc1ccc(C(=O)Nc2cccc(C(F)(F)F)c2)cc1Nc1cncc(C(N)=O)c1 [ALW-II-49-7] + CS(=O)(=O)CCNCc1ccc(-c2ccc3ncnc(Nc4ccc(OCc5cccc(F)c5)c(Cl)c4)c3c2)o1 [Lapatinib] (partner 2 µM)
Procedure, shortened: as §1

Cell Line	relative viability (XMD13-2 + Lapatinib; first compound 0.05 µM)	relative viability (XMD13-2 + Lapatinib; first compound 0.1581 µM)	relative viability (XMD13-2 + Lapatinib; first compound 0.5 µM)	relative viability (XMD13-2 + Lapatinib; first compound 1.581 µM)	relative viability (XMD13-2 + Lapatinib; first compound 5 µM)	relative viability (Dasatinib + Phenformin; first compound 0.005 µM)	relative viability (Dasatinib + Phenformin; first compound 0.01581 µM)	relative viability (Dasatinib + Phenformin; first compound 0.05 µM)	relative viability (Dasatinib + Phenformin; first compound 0.1581 µM)	relative viability (Dasatinib + Phenformin; first compound 0.5 µM)	relative viability (XMD13-2 + Olaparib; first compound 0.05 µM)	relative viability (XMD13-2 + Olaparib; first compound 0.1581 µM)	relative viability (XMD13-2 + Olaparib; first compound 0.5 µM)	relative viability (XMD13-2 + Olaparib; first compound 1.581 µM)	relative viability (XMD13-2 + Olaparib; first compound 5 µM)	relative viability (ALW-II-49-7 + Lapatinib; first compound 0.08 µM)	relative viability (ALW-II-49-7 + Lapatinib; first compound 0.253 µM)	relative viability (ALW-II-49-7 + Lapatinib; first compound 0.8 µM)	relative viability (ALW-II-49-7 + Lapatinib; first compound 2.53 µM)	relative viability (ALW-II-49-7 + Lapatinib; first compound 8 µM)
NCI-H2085	0.821	0.776	0.87	0.809	0.699	0.636	0.651	0.458	0.215	0.162	0.771	0.695	0.805	0.728	0.768	0.892	0.858	0.718	0.776	0.707
NCI-H3122	1.04	1.03	0.99	0.982	0.848	0.36	0.364	0.363	0.326	0.295	0.726	0.649	0.697	0.702	0.629	1.11	0.92	1.05	1.11	1.05
NCI-H522						0.634	0.625	0.587	0.599	0.5	0.632	0.7	0.618	0.473	0.65					
NCI-H441						0.921	0.912	0.862	0.547	0.401	0.545	0.578	0.534	0.477	0.495					
NCI-H1563	1.06	0.88	0.967	0.839	1.08	0.67	0.573	0.595	0.636	0.517						1.07	0.92	1.16	0.837	0.897
NCI-H1703	1.38	1.4	1.17	0.842	0.72						0.503	0.417	0.38		0.372	1.17	1.14	0.906	0.448	0.363
LCLC-103H						0.367	0.3	0.267	0.298	0.127	0.764	0.797	0.776	0.846	0.805					
NCI-H1648											0.983		0.841	0.762	0.509					
EBC-1	0.199	0.22	0.215	0.185	0.214						0.768	0.78	0.837	0.545	0.277	0.197	0.186	0.15	0.231	0.162
NCI-H1299	0.908	1.03	0.997	0.958	0.939						0.953	0.991	0.959	0.972	1	0.986	1.06	0.916	0.839	0.763
IA-LM	0.812	0.869	0.751	0.682	0.47						0.832	0.903	0.787	0.707	0.635	0.83	0.906	0.645	0.152	0.169
